Data: US20240108602A1, “TREATMENT OF MENTAL DISORDERS” (GH Research Ireland Limited, priority 2022, published 2024)
“And” between values parts separate entries of the source, which are not always exact repeats. Identical values can stand only once.

System: patients with treatment-resistant major depressive disorder (TRD)
Assay: Phase 1/2 clinical trial of inhaled 5-MeO-DMT in TRD patients (12 mg, 18 mg, individualized dosing regimen IDR 6/12/18 mg)
Method: Patients were assigned to different groups. In the context of the present invention, the group who received a single, 12 mg dose and the group who underwent an intra-day individualized dosing regimen (IDR) that allowed for multiple, escalating doses (6 mg, 12 mg and 18 mg) within a single day, driven by the intensity of the patient-reported psychedelic experience are of interest.
The data gathered include the assessment of the treated patients against several scales including the Montgomery-Åsberg Depression Rating Scale (MADRS) and the Brief Psychiatric Rating Scale (BPRS).
This trial was designed in two parts. Part A was an open-label, single-arm, single-dose Phase 1 trial with two dose levels (12 mg (n=4) and 18 mg (n=4)). […] The primary endpoint of Part B was to assess the effects on the severity of depression, as assessed by the proportion of patients in remission on day seven after dosing, defined as a MADRS total score of less than or equal to 10.

COc1ccc2[nH]cc(CCN(C)C)c2c1 [5-MeO-DMT]
MADRS Concentration Difficulties improvement (points) (IDR n=8, 2 h): 19
MADRS Concentration Difficulties percentage improvement (IDR n=8, 2 h): 63% and 63.33%
MADRS Concentration Difficulties summed score (IDR n=8, 2 h): 11
MADRS Inability to Feel improvement (points) (IDR n=8, 2 h): 24
MADRS Inability to Feel percentage improvement (IDR n=8, 2 h): 67% and 66.67%
MADRS Inability to Feel summed score (IDR n=8, 2 h): 12
MADRS Inner Tension improvement (points) (IDR n=8, 2 h): 15
MADRS Inner Tension percentage improvement (IDR n=8, 2 h): 58% and 57.69%
MADRS Inner Tension summed score (IDR n=8, 2 h): 11
MADRS Lassitude improvement (points) (IDR n=8, 2 h): 17
MADRS Lassitude percentage improvement (IDR n=8, 2 h): 63% and 62.96%
MADRS Lassitude summed score (IDR n=8, 2 h): 10
MADRS Pessimistic Thoughts improvement (points) (IDR n=8, 2 h): 21
MADRS Pessimistic Thoughts percentage improvement (IDR n=8, 2 h): 75%
MADRS Pessimistic Thoughts summed score (IDR n=8, 2 h): 7
MADRS Suicidal Thoughts improvement (points) (IDR n=8, 2 h): 8
MADRS Suicidal Thoughts percentage improvement (IDR n=8, 2 h): 73% and 72.72%
MADRS Suicidal Thoughts summed score (IDR n=8, 2 h): 3
BPRS Anxiety improvement (points) (IDR n=8, 3 h): 18
BPRS Anxiety percentage improvement (IDR n=8, 3 h): 49% and 48.65%
BPRS Anxiety summed score (IDR n=8, 3 h): 19
BPRS Blunted Affect improvement (points) (IDR n=8, 3 h): 4
BPRS Blunted Affect percentage improvement (IDR n=8, 3 h): 27% and 26.67%
BPRS Blunted Affect summed score (IDR n=8, 3 h): 11
BPRS Emotional Withdrawal improvement (points) (IDR n=8, 3 h): 5
BPRS Emotional Withdrawal percentage improvement (IDR n=8, 3 h): 38% and 38.46%
BPRS Emotional Withdrawal summed score (IDR n=8, 3 h): 8
BPRS Guilt Feelings improvement (points) (IDR n=8, 3 h): 20
BPRS Guilt Feelings percentage improvement (IDR n=8, 3 h): 59% and 58.82%
BPRS Guilt Feelings summed score (IDR n=8, 3 h): 14
BPRS Tension improvement (points) (IDR n=8, 3 h): 5
BPRS Tension percentage improvement (IDR n=8, 3 h): 31% and 31.25%
BPRS Tension summed score (IDR n=8, 3 h): 11
BPRS Anxiety improvement (points) (IDR n=8, Day 1): 21
BPRS Anxiety percentage improvement (IDR n=8, Day 1): 57% and 56.76%
BPRS Anxiety summed score (IDR n=8, Day 1): 16
BPRS Blunted Affect improvement (points) (IDR n=8, Day 1): 7
BPRS Blunted Affect percentage improvement (IDR n=8, Day 1): 47% and 46.67%
BPRS Blunted Affect summed score (IDR n=8, Day 1): 8
BPRS Emotional Withdrawal improvement (points) (IDR n=8, Day 1): 5
BPRS Emotional Withdrawal percentage improvement (IDR n=8, Day 1): 38% and 38.46%
BPRS Emotional Withdrawal summed score (IDR n=8, Day 1): 8
BPRS Guilt Feelings improvement (points) (IDR n=8, Day 1): 23
BPRS Guilt Feelings percentage improvement (IDR n=8, Day 1): 68% and 67.65%
BPRS Guilt Feelings summed score (IDR n=8, Day 1): 11
BPRS Tension improvement (points) (IDR n=8, Day 1): 5
BPRS Tension percentage improvement (IDR n=8, Day 1): 31% and 31.25%
BPRS Tension summed score (IDR n=8, Day 1): 11
MADRS Concentration Difficulties improvement (points) (IDR n=8, Day 1): 29
MADRS Concentration Difficulties percentage improvement (IDR n=8, Day 1): 97% and 96.67%
MADRS Concentration Difficulties summed score (IDR n=8, Day 1): 1
MADRS Inability to Feel improvement (points) (IDR n=8, Day 1): 34
MADRS Inability to Feel percentage improvement (IDR n=8, Day 1): 94% and 94.44%
MADRS Inability to Feel summed score (IDR n=8, Day 1): 2
MADRS Inner Tension improvement (points) (IDR n=8, Day 1): 20
MADRS Inner Tension percentage improvement (IDR n=8, Day 1): 77% and 76.92%
MADRS Inner Tension summed score (IDR n=8, Day 1): 6
MADRS Lassitude improvement (points) (IDR n=8, Day 1): 22
MADRS Lassitude percentage improvement (IDR n=8, Day 1): 81% and 81.48%
MADRS Lassitude summed score (IDR n=8, Day 1): 5
MADRS Pessimistic Thoughts improvement (points) (IDR n=8, Day 1): 24
MADRS Pessimistic Thoughts percentage improvement (IDR n=8, Day 1): 86% and 85.71%
MADRS Pessimistic Thoughts summed score (IDR n=8, Day 1): 4
MADRS Reduced Sleep improvement (points) (IDR n=8, Day 1): 13
MADRS Reduced Sleep percentage improvement (IDR n=8, Day 1): 52%
MADRS Reduced Sleep summed score (IDR n=8, Day 1): 12
MADRS Suicidal Thoughts improvement (points) (IDR n=8, Day 1): 10
MADRS Suicidal Thoughts percentage improvement (IDR n=8, Day 1): 91% and 90.91%
MADRS Suicidal Thoughts summed score (IDR n=8, Day 1): 1
BPRS Anxiety improvement (points) (IDR n=8, Day 7): 20
BPRS Anxiety percentage improvement (IDR n=8, Day 7): 54% and 54.05%
BPRS Anxiety summed score (IDR n=8, Day 7): 17
BPRS Blunted Affect improvement (points) (IDR n=8, Day 7): 7
BPRS Blunted Affect percentage improvement (IDR n=8, Day 7): 47% and 46.67%
BPRS Blunted Affect summed score (IDR n=8, Day 7): 8
BPRS Emotional Withdrawal improvement (points) (IDR n=8, Day 7): 5
BPRS Emotional Withdrawal percentage improvement (IDR n=8, Day 7): 38% and 38.46%
BPRS Emotional Withdrawal summed score (IDR n=8, Day 7): 8
BPRS Guilt Feelings improvement (points) (IDR n=8, Day 7): 24
BPRS Guilt Feelings percentage improvement (IDR n=8, Day 7): 71% and 70.59%
BPRS Guilt Feelings summed score (IDR n=8, Day 7): 10
BPRS Tension improvement (points) (IDR n=8, Day 7): 6
BPRS Tension percentage improvement (IDR n=8, Day 7): 38% and 37.50%
BPRS Tension summed score (IDR n=8, Day 7): 10
MADRS Concentration Difficulties improvement (points) (IDR n=8, Day 7): 21
MADRS Concentration Difficulties percentage improvement (IDR n=8, Day 7): 70%
MADRS Concentration Difficulties summed score (IDR n=8, Day 7): 9
MADRS Inability to Feel improvement (points) (IDR n=8, Day 7): 30
MADRS Inability to Feel percentage improvement (IDR n=8, Day 7): 83% and 83.33%
MADRS Inability to Feel summed score (IDR n=8, Day 7): 6
MADRS Inner Tension improvement (points) (IDR n=8, Day 7): 14
MADRS Inner Tension percentage improvement (IDR n=8, Day 7): 54% and 53.85%
MADRS Inner Tension summed score (IDR n=8, Day 7): 12
MADRS Lassitude improvement (points) (IDR n=8, Day 7): 24
MADRS Lassitude percentage improvement (IDR n=8, Day 7): 89% and 88.89%
MADRS Lassitude summed score (IDR n=8, Day 7): 3
MADRS Pessimistic Thoughts improvement (points) (IDR n=8, Day 7): 25
MADRS Pessimistic Thoughts percentage improvement (IDR n=8, Day 7): 89% and 89.29%
MADRS Pessimistic Thoughts summed score (IDR n=8, Day 7): 3
MADRS Reduced Sleep improvement (points) (IDR n=8, Day 7): 16
MADRS Reduced Sleep percentage improvement (IDR n=8, Day 7): 64%
MADRS Reduced Sleep summed score (IDR n=8, Day 7): 9
MADRS Suicidal Thoughts improvement (points) (IDR n=8, Day 7): 8
MADRS Suicidal Thoughts percentage improvement (IDR n=8, Day 7): 73% and 72.73%
MADRS Suicidal Thoughts summed score (IDR n=8, Day 7): 3
patients with MADRS remission (primary endpoint) (IDR n=8, day seven): 87.5%
SAEs reported (Part A): No SAEs
safety laboratory analyses, vital signs, psychiatric safety assessments, measures of cognitive function (Part A and Part B): No clinically significant changes
patients who experienced at least one ADR (Part A, in both groups (12 mg and 18 mg)): 3 of 4
SAEs reported (Part B IDR): No SAEs
patients who experienced at least one ADR (Part B IDR n=8): 87.5%
patients achieving remission (fraction) (day 1): 8/8
patients achieving remission (fraction) (within 2 h after dosing): ⅝
